Measurements reported in PubChem BioAssay (NCI).
Values joined by “and” are separate entries in the source; they are usually repeats but may differ in a detail not shown here. Equal values may be shown once.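 All cell lines were grown in 96-well plates and treated with compound for 48 hours. The concentration for 50% growth inhibition is given as GI50. TGI denotes the concentration required for complete inhibition of growth.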

Legend:
Assay in all cases: growth of human tumour cells (NCI), 48 h
HCT-15 colon = system: HCT-15 colon
K-562 leukemia = system: K-562 leukemia
KM20L2 colon = system: KM20L2 colon
MOLT-4 leukemia = system: MOLT-4 leukemia
NCI-H226 lung = system: NCI-H226 lung
SF-539 CNS = system: SF-539 CNS
SK-MEL-5 melanoma = system: SK-MEL-5 melanoma
SNB-78 CNS = system: SNB-78 CNS
TK-10 renal = system: TK-10 renal
UACC-62 melanoma = system: UACC-62 melanoma

## N=CCCN(CCC=N)c1ccc(/C=C2\CN(NC(=O)c3ccc(Cl)cc3)C(c3ccccc3)=N2)cc1
HCT-15 colon
  TGI: > 100 µM
K-562 leukemia
  TGI: > 100 µM
KM20L2 colon
  TGI: > 100 µM
MOLT-4 leukemia
  TGI: > 100 µM
NCI-H226 lung
  TGI: > 100 µM
SF-539 CNS
  TGI: > 100 µM
SK-MEL-5 melanoma
  TGI: > 100 µM
SNB-78 CNS
  TGI: > 100 µM
TK-10 renal
  TGI: > 100 µM
UACC-62 melanoma
  TGI: > 100 µM

## C[C@@H](C1CCC2C3C(=CC(=O)[C@@]21C)[C@H](C)[C@]1(CCC(=O)O1)C1OC31)[C@H]1C[C@]2(C)O[C@@](C)(O1)OC2(C)C (stereo partly drawn)
HCT-15 colon
  TGI: > 100 µM
K-562 leukemia
  TGI: > 100 µM
KM20L2 colon
  TGI: > 100 µM
MOLT-4 leukemia
  TGI: > 100 µM
SF-539 CNS
  TGI: > 100 µM
SK-MEL-5 melanoma
  TGI: > 100 µM
TK-10 renal
  TGI: > 100 µM
UACC-62 melanoma
  TGI: > 100 µM

## N#CNC(N)=NCCO
HCT-15 colon
  TGI: > 100 µM
K-562 leukemia
  TGI: > 100 µM
KM20L2 colon
  TGI: > 100 µM
MOLT-4 leukemia
  TGI: > 100 µM
NCI-H226 lung
  TGI: > 100 µM
SF-539 CNS
  TGI: > 100 µM
SK-MEL-5 melanoma
  TGI: > 100 µM
SNB-78 CNS
  TGI: > 100 µM
TK-10 renal
  TGI: > 100 µM
UACC-62 melanoma
  TGI: > 100 µM

## O=C(c1ccccc1)C(c1ccccc1)C1(O)C(=O)Nc2ccccc21 (stereo not drawn)
HCT-15 colon
  TGI: > 100 µM
K-562 leukemia
  TGI: > 100 µM
KM20L2 colon
  TGI: > 100 µM
MOLT-4 leukemia
  TGI: > 100 µM
NCI-H226 lung
  TGI: > 100 µM
SF-539 CNS
  TGI: > 100 µM
SK-MEL-5 melanoma
  TGI: > 100 µM
SNB-78 CNS
  TGI: > 100 µM
TK-10 renal
  TGI: > 100 µM
UACC-62 melanoma
  TGI: > 100 µM

## C/C=C(\C)c1cc(=O)c2c(C)cc3c(c2o1)C(=O)c1c(O)c(C2CC(C)(N(C)C)C(O)C(C)O2)cc(C2CC(N(C)C)C(O)C(C)O2)c1C3=O (stereo not drawn)
HCT-15 colon
  GI50: 0.42 µM and 3.22 µM
  TGI: 5.15 µM and 24.4 µM
K-562 leukemia
  TGI: > 53.6 µM
KM20L2 colon
  TGI: 25 µM
MOLT-4 leukemia
  GI50: 0.687 µM
  TGI: 15.6 µM
SNB-78 CNS
  TGI: 50.6 µM
TK-10 renal
  TGI: 0.729 µM

## Cc1ccc(NC(=O)CC/C(CC(=O)C(C)(C)C)=N/NC(=O)C(N)=O)cc1C
HCT-15 colon
  TGI: > 100 µM
K-562 leukemia
  TGI: > 100 µM
KM20L2 colon
  TGI: > 100 µM
MOLT-4 leukemia
  TGI: > 100 µM
NCI-H226 lung
  TGI: > 100 µM
SF-539 CNS
  TGI: > 100 µM
SK-MEL-5 melanoma
  TGI: > 100 µM
SNB-78 CNS
  TGI: > 100 µM
TK-10 renal
  TGI: > 100 µM
UACC-62 melanoma
  TGI: > 100 µM

## Cc1c(C(=O)CC(=O)C(=O)Nc2c(C(C)C)cccc2C(C)C)[n+](=O)c2ccccc2n1[O-]
HCT-15 colon
  TGI: 8.43 µM
K-562 leukemia
  TGI: 31.1 µM
KM20L2 colon
  TGI: 15.9 µM
MOLT-4 leukemia
  TGI: 8.2 µM
NCI-H226 lung
  TGI: 54.5 µM
SF-539 CNS
  TGI: 17.5 µM
SK-MEL-5 melanoma
  TGI: 24.4 µM
SNB-78 CNS
  TGI: 41.3 µM
TK-10 renal
  TGI: 60.2 µM
UACC-62 melanoma
  TGI: 22.3 µM

## Clc1ccccc1C(n1ncc2ccccc21)n1ncc2ccccc21
HCT-15 colon
  TGI: > 100 µM
K-562 leukemia
  TGI: > 100 µM
MOLT-4 leukemia
  TGI: > 100 µM
NCI-H226 lung
  TGI: > 100 µM
SF-539 CNS
  TGI: > 100 µM
SK-MEL-5 melanoma
  TGI: 57.7 µM
SNB-78 CNS
  TGI: > 100 µM
TK-10 renal
  TGI: > 100 µM
UACC-62 melanoma
  TGI: > 10 µM

## O=C1c2cccc3cc([N+](=O)[O-])cc(c23)C(=O)N1NC1=NCCN1
HCT-15 colon
  TGI: > 100 µM
K-562 leukemia
  TGI: > 100 µM
KM20L2 colon
  TGI: > 100 µM
MOLT-4 leukemia
  TGI: > 100 µM
NCI-H226 lung
  TGI: > 100 µM
SF-539 CNS
  TGI: > 100 µM
SK-MEL-5 melanoma
  TGI: > 100 µM
SNB-78 CNS
  TGI: > 100 µM
TK-10 renal
  TGI: > 100 µM
UACC-62 melanoma
  TGI: > 100 µM

## COC1C(O)C(C)OC(OC2C(Oc3cccc4c(O)c5c(=O)oc6ccc(C)c7c(=O)oc(c34)c5c67)OC(C)C3O[C@H](c4ccccc4)OC32)C1O (stereo partly drawn)
HCT-15 colon
  GI50: 0.516 µM
  TGI: 6.65 µM
K-562 leukemia
  GI50: 0.309 µM and 0.0798 µM
  TGI: 23.2 µM
KM20L2 colon
  TGI: 2.98 µM
MOLT-4 leukemia
  GI50: 0.0334 µM and 0.0236 µM
  TGI: 11.5 µM
NCI-H226 lung
  GI50: 0.186 µM
  TGI: 0.836 µM
SF-539 CNS
  GI50: 0.198 µM
  TGI: 2.23 µM
SK-MEL-5 melanoma
  TGI: 1.8 µM
SNB-78 CNS
  TGI: 4.73 µM
TK-10 renal
  TGI: 7.37 µM
UACC-62 melanoma
  GI50: 0.304 µM
  TGI: 1.9 µM

## CC(C)(C)N/N=C(\Cc1occc(=O)c1O)C(=O)Nc1ccc([N+](=O)[O-])cc1[N+](=O)[O-]
HCT-15 colon
  TGI: > 100 µM
K-562 leukemia
  TGI: > 100 µM
KM20L2 colon
  TGI: > 100 µM
MOLT-4 leukemia
  TGI: > 100 µM
NCI-H226 lung
  TGI: > 100 µM
SF-539 CNS
  TGI: > 100 µM
SK-MEL-5 melanoma
  TGI: > 100 µM
SNB-78 CNS
  TGI: > 100 µM
TK-10 renal
  TGI: > 100 µM
UACC-62 melanoma
  TGI: > 100 µM

## COc1cc(=O)oc(/C=C/C=O)c1C
K-562 leukemia
  TGI: > 100 µM
KM20L2 colon
  TGI: 30.8 µM
MOLT-4 leukemia
  TGI: 77.3 µM
NCI-H226 lung
  TGI: 90.9 µM
SF-539 CNS
  TGI: 34.2 µM
SK-MEL-5 melanoma
  TGI: 38.4 µM
TK-10 renal
  TGI: 76.2 µM
UACC-62 melanoma
  TGI: 32.8 µM

## O=C1c2ccccc2C(=O)C2C1C1C(=O)c3ccccc3C(=O)C21 (stereo not drawn)
HCT-15 colon
  TGI: > 100 µM
K-562 leukemia
  TGI: > 100 µM
KM20L2 colon
  TGI: > 100 µM
SF-539 CNS
  TGI: > 100 µM
SK-MEL-5 melanoma
  TGI: > 100 µM
TK-10 renal
  TGI: > 100 µM
UACC-62 melanoma
  TGI: > 100 µM

## NC(N)=NS(=O)(=O)c1ccc(Nc2c3ccccc3nc3c(C(=O)N4CCN(CCO)CC4)cccc23)cc1
HCT-15 colon
  TGI: > 100 µM
K-562 leukemia
  TGI: > 100 µM
KM20L2 colon
  TGI: > 100 µM
MOLT-4 leukemia
  TGI: > 100 µM
NCI-H226 lung
  TGI: > 100 µM
SF-539 CNS
  TGI: > 100 µM
SK-MEL-5 melanoma
  TGI: > 100 µM
SNB-78 CNS
  TGI: > 100 µM
TK-10 renal
  TGI: > 100 µM
UACC-62 melanoma
  TGI: > 100 µM

## COC(=O)[C@H]1[C@H]2C[C@@H]3c4[nH]c5cc(OC)ccc5c4CCN3C[C@H]2C[C@@H](OC(=O)c2cc(OC)c(OC)c(OC)c2)[C@@H]1OC
HCT-15 colon
  TGI: 87.8 µM
K-562 leukemia
  TGI: 29.3 µM
KM20L2 colon
  TGI: 35.3 µM
MOLT-4 leukemia
  TGI: 50.6 µM
NCI-H226 lung
  TGI: 66.7 µM
SF-539 CNS
  TGI: 23.8 µM
SK-MEL-5 melanoma
  TGI: 54.3 µM
TK-10 renal
  TGI: 38 µM
UACC-62 melanoma
  TGI: 36.9 µM

## O=C(CC(=O)c1ccc([N+](=O)[O-])cc1)C(=O)Nc1nccs1
HCT-15 colon
  TGI: > 100 µM
K-562 leukemia
  TGI: > 100 µM
KM20L2 colon
  TGI: > 100 µM
MOLT-4 leukemia
  TGI: > 100 µM
NCI-H226 lung
  TGI: > 100 µM
SF-539 CNS
  TGI: > 100 µM
SK-MEL-5 melanoma
  TGI: > 100 µM
SNB-78 CNS
  TGI: > 100 µM
TK-10 renal
  TGI: > 100 µM
UACC-62 melanoma
  TGI: > 100 µM

## CC(C)N(C(=O)C12C3C4C5C3C1(C(=O)N(C(C)C)C(C)C)C5(C#N)C42)C(C)C (stereo not drawn)
HCT-15 colon
  TGI: > 100 µM
K-562 leukemia
  TGI: 73 µM
KM20L2 colon
  TGI: > 100 µM
MOLT-4 leukemia
  TGI: > 100 µM
NCI-H226 lung
  TGI: > 100 µM
SF-539 CNS
  TGI: > 100 µM
SK-MEL-5 melanoma
  TGI: > 100 µM
SNB-78 CNS
  TGI: > 100 µM
TK-10 renal
  TGI: > 100 µM
UACC-62 melanoma
  TGI: > 100 µM

## NC(=O)c1cc(-c2ccncc2)cc(-c2ccccc2)c1N
HCT-15 colon
  GI50: 19 µM
  TGI: > 25 µM
K-562 leukemia
  GI50: > 20.1 µM
  TGI: > 25 µM
MOLT-4 leukemia
  GI50: 20 µM
  TGI: > 25 µM
NCI-H226 lung
  GI50: 12.7 µM
  TGI: > 25 µM
SF-539 CNS
  GI50: 10.8 µM
  TGI: > 25 µM
SK-MEL-5 melanoma
  GI50: 14.7 µM
  TGI: > 25 µM
TK-10 renal
  GI50: 6.43 µM
  TGI: > 25 µM
UACC-62 melanoma
  GI50: > 24.1 µM
  TGI: > 25 µM

## CCCN(CCCN)/[N+]([O-])=N\O
HCT-15 colon
  TGI: > 100 µM
K-562 leukemia
  TGI: > 100 µM
KM20L2 colon
  TGI: 2.74 µM
MOLT-4 leukemia
  TGI: > 100 µM
NCI-H226 lung
  TGI: > 100 µM
SF-539 CNS
  TGI: > 100 µM
SK-MEL-5 melanoma
  TGI: > 100 µM
SNB-78 CNS
  TGI: > 100 µM
UACC-62 melanoma
  TGI: 0.831 µM

## CN1C(OCc2ccccc2)c2c(ccc3c2OCO3)C2C=Cc3cc4c(cc3C21)OCO4 (stereo not drawn)
HCT-15 colon
  TGI: 1.83 µM
KM20L2 colon
  TGI: 2.95 µM
MOLT-4 leukemia
  TGI: 0.678 µM
NCI-H226 lung
  TGI: 2.8 µM
SF-539 CNS
  TGI: 2.99 µM
SK-MEL-5 melanoma
  TGI: 2.58 µM
SNB-78 CNS
  TGI: 2.04 µM
TK-10 renal
  TGI: 3.3 µM
UACC-62 melanoma
  TGI: 2.46 µM

## N#CCCN(CCC#N)C(=O)c1cccc(C(=O)N(CCC#N)CCC#N)c1
HCT-15 colon
  TGI: > 100 µM
K-562 leukemia
  TGI: > 100 µM
KM20L2 colon
  TGI: > 63.8 µM
MOLT-4 leukemia
  TGI: > 100 µM
SF-539 CNS
  TGI: > 55.3 µM
SK-MEL-5 melanoma
  TGI: > 100 µM
SNB-78 CNS
  TGI: > 100 µM
TK-10 renal
  TGI: > 100 µM
UACC-62 melanoma
  TGI: > 61.2 µM
